Results reported in ChEMBL document CHEMBL3046040, “Synthesis, cytostatic and anti-viral activity evaluation of the novel acyclic nucleoside analogues containing a sterically constrained (Z)-4-amino-2-butenyl moiety” (Med Chem Res, 2011).
Calls of active or inactive are those of the source. The rule behind the calls is not given here.

Assays:
[1] = test system: L1210; assay: Cytostatic activity against Mus musculus (mouse) L1210 cells after 48 hr by Coulter counting analysis; assay type: functional, cell-based
[2] = test system: SW-620; assay: Antiproliferative activity against Homo sapiens (human) SW620 cells by MTT assay; assay type: functional, cell-based
[3] = test system: Human alphaherpesvirus 1; assay: Antiviral activity against Human herpesvirus 1 strain KOS infected in HEL cells assessed as inhibition of virus-induced cytopathic effect; assay type: functional, organism-based
[4] = test system: Human respirovirus 3; assay: Antiviral activity against Human parainfluenza virus 3 infected Vero cells assessed as inhibition of virus-induced cytopathic effect; assay type: functional, organism-based
[5] = test system: Coxsackievirus B4; assay: Antiviral activity against Human coxsackievirus B4 infected Vero cells assessed as inhibition of virus-induced cytopathic effect; assay type: functional, organism-based
[6] = test system: Influenza A virus; assay: Antiviral activity against Unidentified Influenza A virus ([…]) infected MDCK cells assessed as inhibition of virus-induced cytopathic effect; assay type: functional, organism-based; settings: Influenza A virus (H1N1)
[7] = test system: Respiratory syncytial virus; assay: Antiviral activity against Respiratory syncytial virus infected HeLa cells assessed as inhibition of virus-induced cytopathic effect; assay type: functional, organism-based
[8] = test system: Vesicular stomatitis virus; assay: Antiviral activity against Vesicular stomatitis virus infected HeLa cells assessed as inhibition of virus-induced cytopathic effect; assay type: functional, organism-based
[9] = test system: Coxsackievirus B4; assay: Antiviral activity against Human coxsackievirus B4 infected HeLa cells assessed as inhibition of virus-induced cytopathic effect; assay type: functional, organism-based
[10] = test system: Sindbis virus; assay: Antiviral activity against Sindbis virus infected Vero cells assessed as inhibition of virus-induced cytopathic effect; assay type: functional, organism-based
[11] = test system: Influenza B virus; assay: Antiviral activity against Influenza B virus infected MDCK cells assessed as inhibition of virus-induced cytopathic effect; assay type: functional, organism-based
[12] = test system: Punta Toro virus; assay: Antiviral activity against Punta Toro virus infected Vero cells assessed as inhibition of virus-induced cytopathic effect; assay type: functional, organism-based
[13] = test system: Human alphaherpesvirus 2; assay: Antiviral activity against Human herpesvirus 2 strain G infected HEL cells assessed as inhibition of virus-induced cytopathic effect; assay type: functional, organism-based
[14] = test system: Influenza A virus H3N2; assay: Antiviral activity against Influenza A virus H3N2 infected MDCK cells assessed as inhibition of virus-induced cytopathic effect; assay type: functional, organism-based
[15] = test system: Reovirus sp.; assay: Antiviral activity against Mammalian orthoreovirus 1 infected Vero cells assessed as inhibition of virus-induced cytopathic effect; assay type: functional, organism-based
[16] = test system: Human immunodeficiency virus 1; assay: Antiviral activity against Human immunodeficiency virus 1 IIIB infected CEM cells assessed as inhibition of virus-induced giant cell formation after 4 days by microscopic analysis; assay type: functional, organism-based; settings: CCRF-CEM, 96 h
[17] = test system: WI-38; assay: Antiproliferative activity against Homo sapiens (human) WI38 cells by MTT assay; assay type: cell-based
[18] = test system: HepG2; assay: Antiproliferative activity against Homo sapiens (human) HepG2 cells by MTT assay; assay type: functional, cell-based
[19] = test system: CCRF-CEM; assay: Cytostatic activity against Homo sapiens (human) CEM cells after 72 hr by Coulter counting analysis; assay type: functional, cell-based
[20] = test system: Human immunodeficiency virus 2; assay: Antiviral activity against Human immunodeficiency virus type 2 (ISOLATE ROD) infected CEM cells assessed as inhibition of virus-induced giant cell formation after 4 days by microscopic analysis; assay type: functional, organism-based; settings: Human immunodeficiency virus 2, ISOLATE ROD, CCRF-CEM, 96 h
[21] = test system: MCF7; assay: Antiproliferative activity against Homo sapiens (human) MCF7 cells by MTT assay; assay type: functional, cell-based
[22] = test system: MOLT-4; assay: Cytostatic activity against Homo sapiens (human) Molt4/C8 cells after 72 hr by Coulter counting analysis; assay type: functional, cell-based; settings: MOLT-4, 72 h
[23] = test system: HeLa; assay: Antiproliferative activity against Homo sapiens (human) HeLa cells by MTT assay; assay type: functional, cell-based
[24] = test system: MIA PaCa-2; assay: Antiproliferative activity against Homo sapiens (human) MIAPaCa2 cells by MTT assay; assay type: functional, cell-based
[25] = molecular target: Human immunodeficiency virus type 1 reverse transcriptase (Human immunodeficiency virus 1) (UniProt Q72547); assay: Inhibition of Human immunodeficiency virus 1 recombinant reverse transcriptase at 500 uM

Row | Structure (SMILES) | Activity [3] | Activity [4] | Activity [5] | Activity [6] | Activity [7] | Activity [8] | Activity [9] | Activity [10] | Activity [11] | Activity [12] | Activity [13] | Activity [14] | Activity [15] | IC50 [17] [µM] | IC50 [18] [µM] | IC50 [19] [µM] | IC50 [21] [µM] | IC50 [22] [µM] | IC50 [23] [µM] | IC50 ([1]; Mus musculus, L1210, 48 h) [µM] | further results
1 | NC/C=C\Cn1cnc2c(N)nc(N)nc21 [listing 1 of 3 here] |  |  |  |  |  |  |  |  |  |  |  |  |  |  |  |  |  |  |  |  | IC50 ([1]; l1210): 350 µM; IC50 ([2]; sw-620): 98.8 µM
2 | NC/C=C\Cn1ccc(=O)[nH]c1=O | inactive | inactive | inactive | inactive | inactive | inactive | inactive | inactive | inactive | inactive | inactive | inactive | inactive |  |  |  |  |  |  |  | 
3 | Cc1cn(C/C=C\CN)c(=O)nc1N | inactive | inactive | inactive | inactive | inactive | inactive | inactive | inactive | inactive | inactive | inactive | inactive | inactive | 63 | > 100 | 46 | 67.5 | 42 | > 100 | 45 | EC50 [16]: 36 µM; EC50 [20]: 38 µM; IC50 [24]: > 100 µM; IC50 ([2]; Homo sapiens, SW-620): 69.2 µM; inhibition [25]: inactive
4 | NC/C=C\Cn1cnc2c(Cl)nc(N)nc21 | inactive | inactive | inactive | inactive | inactive | inactive | inactive | inactive | inactive | inactive | inactive | inactive | inactive | > 100 | > 100 | > 500 | > 100 | > 500 | 54 | > 500 | EC50 [16]: ≥ 100 µM; EC50 [20]: ≥ 100 µM; Activity [23]: Dose-dependent effect; IC50 [24]: > 100 µM; IC50 ([2]; Homo sapiens, SW-620): > 100 µM
5 | NC/C=C\Cn1ccc(N)nc1=O | inactive | inactive | inactive | inactive | inactive | inactive | inactive | inactive | inactive | inactive | inactive | inactive | inactive | 85.2 | > 100 | > 500 | > 100 | > 500 | > 100 | > 500 | EC50 [16]: 96 µM; EC50 [20]: 78 µM; IC50 [24]: > 100 µM; IC50 ([2]; Homo sapiens, SW-620): 53.2 µM; inhibition [25]: inactive
6 | NCCCCn1cnc2c(-n3cccc3)ncnc21 | inactive | inactive | inactive | inactive | inactive | inactive | inactive | inactive | inactive | inactive | inactive | inactive | inactive | > 100 | 74.2 | 115 | > 100 | 140 | 10.9 | 91 | Activity [23]: Dose-dependent effect; IC50 [24]: > 100 µM; IC50 ([2]; Homo sapiens, SW-620): 40.5 µM
7 | Cc1cn(C/C=C\CN)c(=O)[nH]c1=O | inactive | inactive | inactive | inactive | inactive | inactive | inactive | inactive | inactive | inactive | inactive | inactive | inactive | 54.2 | > 100 | 51 | 49.2 | 44 | 61.6 | 43 | EC50 [16]: 29 µM; EC50 [20]: 41 µM; IC50 [24]: 93.3 µM; IC50 ([2]; Homo sapiens, SW-620): 54.4 µM; inhibition [25]: inactive
8 | NC/C=C\Cn1cnc2c(=O)[nH]c(N)nc21 | inactive | inactive | inactive | inactive | inactive | inactive | inactive | inactive | inactive | inactive | inactive | inactive | inactive |  |  |  |  |  |  |  | EC50 [16]: 10 µM; EC50 [20]: 10 µM
9 | NC/C=C\Cn1cnc2c(N)ncnc21 | inactive | inactive | inactive | inactive | inactive | inactive | inactive | inactive | inactive | inactive | inactive | inactive | inactive | 69.1 | > 100 | 340 | > 100 | 248 | > 100 | 276 | IC50 [24]: > 100 µM; IC50 ([2]; Homo sapiens, SW-620): 77.1 µM
10 | NC/C=C\Cn1cnc2c(N)nc(N)nc21 [listing 2 of 3 here] | inactive | inactive | inactive | inactive | inactive | inactive | inactive | inactive | inactive | inactive | inactive | inactive | inactive |  |  |  |  |  |  |  | 
11 | NCCCCn1cnc2c(N)nc(N)nc21 | inactive | inactive | inactive | inactive | inactive | inactive | inactive | inactive | inactive | inactive | inactive | inactive | inactive |  |  |  |  |  |  |  | 
12 | NC/C=C\Cn1cnc2c(N)nc(N)nc21 [listing 3 of 3 here] |  |  |  |  |  |  |  |  |  |  |  |  |  | > 100 | > 100 | > 500 | > 100 | > 500 | > 100 | > 500 | IC50 [24]: > 100 µM; IC50 ([2]; Homo sapiens, SW-620): > 100 µM
13 | NC/C=C\Cn1cnc2c(=O)[nH]cnc21 | inactive | inactive | inactive | inactive | inactive | inactive | inactive | inactive | inactive | inactive | inactive | inactive | inactive | > 100 | > 100 | > 500 | > 100 | > 500 | 69.1 | 114 | EC50 [16]: ≥ 100 µM; EC50 [20]: ≥ 100 µM; IC50 [24]: > 100 µM; IC50 ([2]; Homo sapiens, SW-620): > 100 µM
